Reference: patent US7144585B1, “Cilostazol preparation” (Otsuka Pharmaceutical Co., Ltd., priority 1999, dated 2006)
Read-outs that look alike come from different tables or passages of the source.

Experiments:
[1] = Absorption test of cilostazol into the large intestine (Test Example 1); type: in vivo, rats
Experimental: Absorption Test of Cilostazol into the Large Intestine
(§1) Preparations of Examples 1, 2, 4 and 5 and Comparative Example 1 were directly administered in a large intestine loop of female rats (3 or 4 rats per group) in the amount of 100 mg/kg calculated on the basis of cilostazol (CLZ). Then, blood was collected with a lapse of time and cilostazol concentration in blood was measured. An average cilostazol concentration in blood is shown in Table 10 and pharmacokinetic parameters after administration are shown in Table 11.

[2] = Absorption test at upper and lower portions of the digestive tract (Test Example 8); type: in vivo; details: rats; for AUC: read-out: AUCO-2 hr
Experimental: as §1
Absorption Test of Slightly Soluble Drug at Upper and Lower Portions of the Digestive Tract.
In the same manner as in Test Example 1, preparations of Example 2 and Comparative Examples 1 and 5 were directly administered in the duodenum and the large intestine of rats. Then, blood was collected with a lapse of time and cilostazol concentration in blood was measured.

[3] = Cilostazol dissolution test, Paddle method, 0.3% SLS (Test Example 2); type: physicochemical
Experimental: Preparations of Examples 1, 2 and 4 and Comparative Example 1 were weighed in the amount of 100 mg calculated on the basis of cilostazol and subjected to a dissolution test under the following conditions. To evaluate the dissolution rate, the dissolution percentage was compared after two minutes had passed since the beginning of the test.
Conditions of Dissolution Test
Dissolution test solution: 900 mL of aqueous 0.3% sodium lauryl sulfate solution
Amount of sample: amount corresponding to 100 mg of cilostazol per vessel

[4] = rat, blood, female rats, large intestine loop, 100 mg/kg as CLZ
[5] = directly administered in the duodenum

concentration at 0 hr ([1]; rat, blood, other: directly administered in a large intestine loop, female rats, direct administration in large intestine loop, 100 mg/kg as CLZ, time after administration 0 hr)	concentration at 0.083 hr ([1]; rat, blood, other: directly administered in a large intestine loop, female rats, large intestine loop, 100 mg/kg as CLZ, 0.083 hr after administration)	concentration at 0.25 hr ([1]; rat, blood, other: directly administered in a large intestine loop, female rats, large intestine loop, 100 mg/kg as CLZ, 0.25 hr after administration)	concentration at 0.5 hr ([1]; rat, blood, other: directly administered in a large intestine loop, female rats, large intestine loop, 100 mg/kg as CLZ, 0.5 hr after administration)	concentration at 1 hr ([1]; rat, blood, other: directly administered in a large intestine loop, female rats, large intestine loop, 100 mg/kg as CLZ, 1.0 hr after administration)	concentration at 2 hr ([1]; rat, blood, other: directly administered in a large intestine loop, female rats, large intestine loop, 100 mg/kg as CLZ, 2.0 hr after administration)	Cmax [1, 4]	Tmax [1, 4]	AUC(0-t) ([1]; rat, blood, female rats, large intestine loop, 100 mg/kg as CLZ, read-out: AUC0–2 hr)	AUC ([2]; female, rat, blood, 100 mg/kg, directly administered in the duodenum)	Cmax ([2]; female, rat, blood, 100 mg/kg, directly administered in the duodenum, read-out: Cmax)	AUCO-2 hr ([2]; directly administered in the large intestine)	dissolution rate / dissolution percentage (in words) ([3]; 0.3% SLS, Paddle 75 rpm)	Dissolution percentage after 2 minutes ([3]; 900 mL aqueous 0.3% sodium lauryl sulfate, Paddle method 75 rpm, 100 mg cilostazol per vessel)	AUC ([2]; female, rat, blood, 100 mg/kg, directly administered in the large intestine)	Cmax ([2]; female, rat, blood, 100 mg/kg, directly administered in the large intestine, read-out: Cmax)	AUCO-2 hr [2, 5]	Cmax [2, 5]	SMILES	blood concentration attained (in words) ([1]; rats, large intestine, within two hours after administration)
0 ng/mL	15 ng/mL	26 ng/mL	51 ng/mL	100 ng/mL	170 ng/mL	170 ng/mL	2 h	186 ng·h/mL	2590 ng·h/mL	1900 ng/mL	186 ng·h/mL	low dissolution rate	22.7%					O=C1CCc2cc(OCCCCc3nnnn3C3CCCCC3)ccc2N1 [Comp. Example 1, cilostazol]	sufficient blood concentration was not obtained
														236 ng·h/mL	168 ng/mL	3682 ng·h/mL	3002 ng/mL	O=C1CCc2cc(OCCCCc3nnnn3C3CCCCC3)ccc2N1 [Comp. Example 5, cilostazol]	
